# Assay results taken from ChEMBL document CHEMBL1201861, “Genomics of Drug Sensitity in Cancer screening data, Wellcome Trust Sanger Institute”.
# Legend:
# Assay in all cases: cells
# Type in all cases: functional, cell-based, Homo sapiens
# [1] = test system: KM-H2; conditions: Homo sapiens, KM-H2;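 note: growth inhibition of KM-H2 cells, read out by a cell viability assay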
# Description: SANGER: Inhibition of human KM-H2 cell growth in a cell viability assay.
# [2] = test system: ACN; conditions: Homo sapiens, ACN;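 note: growth inhibition of the human ACN cell line, read out via cell viability testing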
# Description: SANGER: Inhibition of human ACN cell growth in a cell viability assay.
# [3] = test system: LS-513; conditions: Homo sapiens, LS-513
# Description: SANGER: Inhibition of human LS-513 cell growth in a cell viability assay.
# [4] = test system: KS-1; conditions: Homo sapiens, KS-1;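 note: growth inhibition of KS-1 cells, read out with a cell viability assay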
# Description: SANGER: Inhibition of human KS-1 cell growth in a cell viability assay.
# [5] = test system: D-502MG; conditions: Homo sapiens, D-502MG
# Description: SANGER: Inhibition of human D-502MG cell growth in a cell viability assay.
# [6] = test system: MHH-NB-11; conditions: Homo sapiens, MHH-NB-11;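 note: growth inhibition of human MHH-NB-11 cells, read out by a cell viability assay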
# Description: SANGER: Inhibition of human MHH-NB-11 cell growth in a cell viability assay.
# [7] = test system: EW-18; conditions: Homo sapiens, EW-18;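 note: growth inhibition of EW-18 cells, read out by a cell viability assay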
# Description: SANGER: Inhibition of human EW-18 cell growth in a cell viability assay.
# [8] = test system: NB10; conditions: Homo sapiens, NB10;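 note: growth inhibition of NB10 cells, read out by a cell viability assay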
# Description: SANGER: Inhibition of human NB10 cell growth in a cell viability assay.
# [9] = test system: DMS-79; conditions: Homo sapiens, DMS-79;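 note: growth inhibition measured with a cell viability assay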
# Description: SANGER: Inhibition of human DMS-79 cell growth in a cell viability assay.
# [10] = test system: KLE; conditions: Homo sapiens, KLE;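 note: growth inhibition of human KLE cells, read out with a cell viability assay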
# Description: SANGER: Inhibition of human KLE cell growth in a cell viability assay.
# [11] = test system: NCI-H1648; conditions: Homo sapiens, NCI-H1648;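 note: cell viability assay measuring inhibition of NCI-H1648 cell growth, from the Sanger screening data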
# Description: SANGER: Inhibition of human NCI-H1648 cell growth in a cell viability assay.
# [12] = test system: CP66-MEL; conditions: Homo sapiens, CP66-MEL;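 note: growth inhibition of CP66-MEL cells determined in a cell viability assay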
# Description: SANGER: Inhibition of human CP66-MEL cell growth in a cell viability assay.
# [13] = test system: IST-MES1; conditions: Homo sapiens, IST-MES1;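 note: growth inhibition of IST-MES1 cells, measured with a cell viability assay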
# Description: SANGER: Inhibition of human IST-MES1 cell growth in a cell viability assay.
# [14] = test system: SK-PN-DW; conditions: Homo sapiens, SK-PN-DW;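 note: growth inhibition measured with a viability assay on these cells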
# Description: SANGER: Inhibition of human SK-PN-DW cell growth in a cell viability assay.
# [15] = test system: LB373-MEL-D; conditions: Homo sapiens, LB373-MEL-D;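 note: growth inhibition of the cell line, read out in a cell viability assay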
# Description: SANGER: Inhibition of human LB373-MEL-D cell growth in a cell viability assay.
# [16] = test system: MMAC-SF; conditions: Homo sapiens, MMAC-SF;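 note: growth inhibition of human MMAC-SF cells, read out with a cell viability assay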
# Description: SANGER: Inhibition of human MMAC-SF cell growth in a cell viability assay.
# [17] = test system: JVM-3; conditions: Homo sapiens, JVM-3;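 note: growth inhibition of human JVM-3 cells, read out with a cell viability assay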
# Description: SANGER: Inhibition of human JVM-3 cell growth in a cell viability assay.
# [18] = test system: LB1047-RCC; conditions: Homo sapiens, LB1047-RCC;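 note: inhibition of cell growth, determined with a cell viability assay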
# Description: SANGER: Inhibition of human LB1047-RCC cell growth in a cell viability assay.
# [19] = test system: HDLM-2; conditions: Homo sapiens, HDLM-2;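 note: cell viability assay measuring suppression of HDLM-2 proliferation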
# Description: SANGER: Inhibition of human HDLM-2 cell growth in a cell viability assay.
# [20] = test system: RKO; conditions: Homo sapiens, RKO;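 note: growth inhibition of human RKO cells, read out with a cell viability assay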
# Description: SANGER: Inhibition of human RKO cell growth in a cell viability assay.
# [21] = test system: HOP-62; conditions: Homo sapiens, HOP-62;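 note: cell growth inhibition determined with a viability assay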
# Description: SANGER: Inhibition of human HOP-62 cell growth in a cell viability assay.
# [22] = test system: COLO-800; conditions: Homo sapiens, COLO-800;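 note: growth inhibition of COLO-800 cells, read out with a cell viability assay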
# Description: SANGER: Inhibition of human COLO-800 cell growth in a cell viability assay.
# [23] = test system: SK-LMS-1; conditions: Homo sapiens, SK-LMS-1;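 note: growth inhibition of human SK-LMS-1 cells, read out with a cell viability assay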
# Description: SANGER: Inhibition of human SK-LMS-1 cell growth in a cell viability assay.
# [24] = test system: KMOE-2; conditions: Homo sapiens, KMOE-2;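 note: growth inhibition of human KMOE-2 cells, read out with a cell viability assay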
# Description: SANGER: Inhibition of human KMOE-2 cell growth in a cell viability assay.
# [25] = test system: ES8; conditions: Homo sapiens, ES8;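 note: growth inhibition of human ES8 cells, read out with a cell viability assay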
# Description: SANGER: Inhibition of human ES8 cell growth in a cell viability assay.
# [26] = test system: KARPAS-299; conditions: Homo sapiens, KARPAS-299
# Description: SANGER: Inhibition of human KARPAS-299 cell growth in a cell viability assay.
# [27] = test system: ATN-1; conditions: Homo sapiens, ATN-1;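 note: growth inhibition of human ATN-1 cells, read out with a cell viability assay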
# Description: SANGER: Inhibition of human ATN-1 cell growth in a cell viability assay.
# [28] = test system: ES3; conditions: Homo sapiens, ES3;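 note: growth inhibition of ES3 cells, read out with a cell viability assay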
# Description: SANGER: Inhibition of human ES3 cell growth in a cell viability assay.
# [29] = test system: GT3TKB; conditions: Homo sapiens, GT3TKB;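 note: growth inhibition of the cell line, read out with a cell viability assay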
# Description: SANGER: Inhibition of human GT3TKB cell growth in a cell viability assay.
# [30] = test system: EC-GI-10; conditions: Homo sapiens, EC-GI-10
# Description: SANGER: Inhibition of human EC-GI-10 cell growth in a cell viability assay.
# [31] = test system: NEC8; conditions: Homo sapiens, NEC8;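 note: growth inhibition of human NEC8 cells, read out by a cell viability assay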
# Description: SANGER: Inhibition of human NEC8 cell growth in a cell viability assay.
# [32] = test system: TK-10; conditions: Homo sapiens, TK-10;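 note: growth inhibition of TK-10 cells, read out in a cell viability assay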
# Description: SANGER: Inhibition of human TK10 cell growth in a cell viability assay.
# [33] = test system: NCI-H1770; conditions: Homo sapiens, NCI-H1770;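 note: growth inhibition of NCI-H1770 cells determined with a viability readout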
# Description: SANGER: Inhibition of human NCI-H1770 cell growth in a cell viability assay.
# [34] = test system: NCI-H1092; conditions: Homo sapiens, NCI-H1092;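 note: cell growth inhibition measured with a cell viability assay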
# Description: SANGER: Inhibition of human NCI-H1092 cell growth in a cell viability assay.
# [35] = test system: D283 Med; conditions: Homo sapiens, D283 Med
# Description: SANGER: Inhibition of human D-283MED cell growth in a cell viability assay.
# [36] = test system: CCRF-CEM; conditions: Homo sapiens, CCRF-CEM;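 note: inhibition of CCRF-CEM cell growth, measured by a cell viability assay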
# Description: SANGER: Inhibition of human CCRF-CEM cell growth in a cell viability assay.
# [37] = test system: RS4-11; conditions: Homo sapiens, RS4-11;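 note: growth inhibition of RS4-11 cells, read out by a cell viability assay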
# Description: SANGER: Inhibition of human RS4-11 cell growth in a cell viability assay.
# [38] = test system: KNS-81-FD; conditions: Homo sapiens, KNS-81-FD;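 note: growth inhibition of KNS-81-FD cells, read out with a cell viability assay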
# Description: SANGER: Inhibition of human KNS-81-FD cell growth in a cell viability assay.
# [39] = test system: NCI-H69; conditions: Homo sapiens, NCI-H69;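 note: growth inhibition of the cell line, read out with a cell viability assay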
# Description: SANGER: Inhibition of human NCI-H69 cell growth in a cell viability assay.
# [40] = test system: OMC-1; conditions: Homo sapiens, OMC-1;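 note: growth inhibition of the OMC-1 cell line, measured by a cell viability assay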
# Description: SANGER: Inhibition of human OMC-1 cell growth in a cell viability assay.
# [41] = test system: NCI-H1155; conditions: Homo sapiens, NCI-H1155;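 note: cell growth inhibition measured by a viability assay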
# Description: SANGER: Inhibition of human NCI-H1155 cell growth in a cell viability assay.
# [42] = test system: EW-3; conditions: Homo sapiens, EW-3;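 note: cell viability assay read-out, IC50 reflects inhibition of growth of the EW-3 cells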
# Description: SANGER: Inhibition of human EW-3 cell growth in a cell viability assay.
# [43] = test system: LC-2-ad; conditions: Homo sapiens, LC-2-ad;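 note: growth inhibition of human LC-2-ad cells, read out with a cell viability assay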
# Description: SANGER: Inhibition of human LC-2-ad cell growth in a cell viability assay.
# [44] = test system: BE-13; conditions: Homo sapiens, BE-13;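 note: growth inhibition of human BE-13 cells, measured with a cell viability assay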
# Description: SANGER: Inhibition of human BE-13 cell growth in a cell viability assay.
# [45] = test system: BB65-RCC; conditions: Homo sapiens, BB65-RCC;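 note: growth inhibition of the cell line, measured with a cell viability assay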
# Description: SANGER: Inhibition of human BB65-RCC cell growth in a cell viability assay.
# [46] = test system: IST-MEL1; conditions: Homo sapiens, IST-MEL1;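 note: growth inhibition of the cell line, read out with a cell viability assay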
# Description: SANGER: Inhibition of human IST-MEL1 cell growth in a cell viability assay.
# [47] = test system: NCI-H747; conditions: Homo sapiens, NCI-H747;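 note: growth inhibition of human NCI-H747 cells, read out by a cell viability assay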
# Description: SANGER: Inhibition of human NCI-H747 cell growth in a cell viability assay.
# [48] = test system: HT; conditions: Homo sapiens, HT
# Description: SANGER: Inhibition of human HT cell growth in a cell viability assay.
structure (smiles),measurement,setting,value
COc1cc2ncn(-c3cc(OCc4ccccc4C(F)(F)F)c(C(N)=O)s3)c2cc1OC [GW843682X],IC50,[1],20.5 nM
same,IC50,[2],33.3 nM
same,IC50,[3],212 nM
same,IC50,[4],26.6 nM
same,IC50,[5],> 256 nM
same,IC50,[6],227 nM
same,IC50,[7],> 256 nM
same,IC50,[8],> 256 nM
same,IC50,[9],> 256 nM
same,IC50,[10],213 nM
same,IC50,[11],14.4 nM
same,IC50,[12],162 nM
same,IC50,[13],159 nM
same,IC50,[14],38.7 nM
same,IC50,[15],149 nM
same,IC50,[16],> 256 nM
same,IC50,[17],> 256 nM
same,IC50,[18],25.4 nM
same,IC50,[19],69.5 nM
same,IC50,[20],17.2 nM
same,IC50,[21],44.8 nM
same,IC50,[22],> 256 nM
same,IC50,[23],73.4 nM
same,IC50,[24],231 nM
same,IC50,[25],10.5 nM
same,IC50,[26],94.3 nM
same,IC50,[27],24.1 nM
same,IC50,[28],> 256 nM
same,IC50,[29],12.3 nM
same,IC50,[30],> 256 nM
same,IC50,[31],48.7 nM
same,IC50,[32],90.9 nM
same,IC50,[33],> 256 nM
same,IC50,[34],> 256 nM
same,IC50,[35],> 256 nM
same,IC50,[36],14.8 nM
same,IC50,[37],12.8 nM
same,IC50,[38],> 256 nM
same,IC50,[39],181 nM
same,IC50,[40],> 256 nM
same,IC50,[41],86.8 nM
same,IC50,[42],66.3 nM
same,IC50,[43],15.6 nM
same,IC50,[44],11 nM
same,IC50,[45],68.9 nM
same,IC50,[46],28.8 nM
same,IC50,[47],76.7 nM
same,IC50,[48],128 nM
